Data: patent publication US6841577B2, “Pesticidal activity of plant essential oils and their constituents” (Ecosmart Technologies, Inc., priority 1999, dated 2005)

Legend:
[1] = system: octopamine receptor sites; test: 3H-OA binding to ventral nerve cord / synaptosomal membrane protein; design: species or system American cockroach (Periplaneta americana); conditions: for cpm 3H-OA/500 μg protein: Table 1, solvent control 1280 ± 259
Description: Different concentrations of unlabeled octopamine (OA) (20, 30, 40, 50, 60, 100 ng) were tested on the binding activity as a positive control. Test chemicals were dissolved in acetone before the assay. Different concentrations of the test chemicals were added directly to the protein preparation from ventral nerve cord. The same amount of solvent (1 μl 0.1%) were added to the control samples. All assays with test chemicals were run in the presence and absence of 50 ng OA. All chemicals were added to the protein extract 20 min prior the addition of radio labeled ^3H-OA(100,000 cpm/sample). After 30 min at 24° C. of the addition of ^3H-OA, the reaction was stopped by the addition of ice-cold Tris buffer, and the samples were filtered through GF/C membrane using water vacuum. After two washes each with 5 ml Tris buffer, the membrane was removed, air dried and the radioactivity was counted in 4 ml liquid scintillation solution. The specific binding was calculated as the difference between the values in the presence and absence of unlabeled OA. All data are calculated as the mean±standard deviation of 5 assays.
Additional tests were conducted on radio labeled octopamine using other purified naturally occurring materials as given in Tables 2 and 3.

American cockroach [2] = test: Lethal effect of injected test chemicals; format: in vivo; conditions: dead/10
Description: Further studies were conducted to determine the LD 50 of purified naturally occurring plant essential oils and/or their constituents. […] Ten roaches per dose were used. Another group of ten roaches received the same volume of vehicle only (0.5 μl) and used as a control group. Mortality was recorded 24, 48, and 72 hours after exposure.

[3] = system: heart of American cockroach (octopamine receptors); test: Heartbeat after application to thoracic segment; format: in vivo; conditions: mean ±SD of three roaches
Description: To further establish the effect of the purified naturally occurring plant essential oils and/or their constituents on the American cockroach, a 300 μg amount of the chemical was applied to the thoracic segment of an intact and alive American cockroach. The heart beats/30 seconds was measured. The heart of the cockroach is known to have a high concentration of octopamine receptors and the heart beat is considered an important measurement to indicate the effect of the applied chemicals to the octopamine receptors.

American cockroach [4] = test: Cross walk jar test on pre-treated surface; format: in vivo; conditions: Periplaneta americana, 24 h
Description: In the test, a known amount of the test material was dissolved in a known volume of acetone and applied to small jars and all inner bottom surfaces were covered. The bottom surface of each jar is approximately 250 cm^2. One hour after the acetone had completely evaporated, five American cockroaches were introduced to each jar. Control jars were treated exactly as above but with the known amount of acetone only.
The results of the “cross walk” jar tests are in Table 8 in which the “4-blend” was dispersed as an aerosol and a dust in the jar.
In this test, the acetone solution of the test material was placed in the jar and the roach inserted into the jar after the acetone had evaporated.
Mortality was measured 24 hours after exposure.
The “4-blend” and the individual constituents of the “4-blend” were tested using 10 cockroaches for each “cross walk” treatment. In addition, pyrethrins were tested separately and mixed with the various components.
A concentration of 100 mg/jar was used for each individual alone. In the co-treatment experiment without pyrethrins, 20 mg/jar for each chemical was used. In the cotreatment experiment with pyrethrins, 20 mg/jar for the naturally occurring plant material was used. Pyrethrins was used at 2 mg/jar. […] It was noted above that the mortality is dependent upon concentration. […] Some synergism is found between pyrethrins and either α-terpineol or benzyl alcohol.

[5] = system: 2nd instar green peach aphid nymphs; test: Cabbage leaf disc bioassay; format: in vivo
Description: A bioassay similar to that for S. litura larvae was used for additional larvae. Cabbage leaf discs were dipped in emulsified aqueous solutions, diluted 1:200 in water, on which 2nd instar green peach aphid nymphs were placed. For each treatment there was 10 aphids per disc with 5 replicates; each experiment was replicated in time (successive days) from 3-5 times. After 24 hours, aphids were reported as being (1) on the leaf disc and feeding; (2) alive, but walking off the disc; or (3) dead. In the field, aphids which cease feeding and abandon a host plant are very unlikely to survive.

American cockroaches = test: Cross walk testing with eugenol in acetone or Isopar M; format: in vivo, American cockroach; design: KD (knockdown), of 5: unit not given beside the values
Description: Additional “cross walk” testing was conducted with eugenol. Table 18 provides data for 5% (by volume) eugenol in acetone and Table 19 provides data for 1% eugenol in acetone wherein five (5) American cockroaches were placed in the screened jars after the acetone had evaporated. IM=immobilized; KD=knockdown; D=dead; L=live (no effect).
Table 20 provides data for 5% (by volume) eugenol in 95% Isopar M and Table 21 provides data for 1% (by volume) eugenol in 99% Isopar M. Isopar M is an isoparaffinic hydrocarbon sold by Exxon Corporation.

[6] = 1% eugenol in 99% Isopar M, 2 min
[7] = 1% eugenol in 99% Isopar M, 5 min
[8] = 1% eugenol in 99% Isopar M, 45 min
[9] = 5% eugenol in 95% Isopar M, 2 min
[10] = 5% eugenol in 95% Isopar M, 5 min

C=CCc1ccc(O)c(OC)c1 [eugenol]
cpm 3H-OA/500 μg protein ([1]; 300 ng test chemical): 818 ± 93 cpm 3H-OA/500 μg protein
cpm 3H-OA/500 μg protein ([1]; 500 ng test chemical): 730 ± 59 cpm 3H-OA/500 μg protein
cpm 3H-OA/500 μg protein ([1]; 700 ng test chemical): 453 ± 39 cpm 3H-OA/500 μg protein
cpm 3H-OA/500 μg protein ([1]; 1000 ng test chemical): 226 ± 15 cpm 3H-OA/500 μg protein
cpm 3H-OA/500 μg protein ([1]; 1500 ng test chemical): 200 ± 17 cpm 3H-OA/500 μg protein
classification with respect to octopamine receptor sites (OAR) ([1]; based on the binding data of Tables 1-3): high OAR antagonists
Mortality 24 hr after treatment (American cockroach [2]; 300 μg): 2/10
Mortality 24 hr after treatment (American cockroach [2]; 400 μg): 3/10
Mortality (American cockroach [2]; 500 μg/roach injected into thoracic and abdominal segments, 24 hr.): 6/10
Mortality (American cockroach [2]; 500 μg/roach injected, 48 hr.): 6/10
Mortality (American cockroach [2]; 500 μg/roach injected, 72 hr., control 1/10): 6/10
Mortality 24 hr after treatment (American cockroach [2]; 500 μg): 5/10
Mortality 24 hr after treatment (American cockroach [2]; 600 μg): 8/10
Mortality 24 hr after treatment (American cockroach [2]; 700 μg): 9/10
Heart beat/30 sec 30 min after treatment ([3]; 300 μg applied to thoracic segment): 24 ± 1 beat/30 sec
Heart beat/30 sec before treatment ([3]; baseline of the same roaches): 55 ± 3 beat/30 sec
mortality at 100 mg (American cockroach [4]): 100%
activity on green peach aphid nymphs, in words ([5]; 1:200 dilution): somewhat more active
Percentage of aphids Walking (off disc) ([5]; diluted 1:200 in water, after 24 hours, n = 250, Table 16, control 23.4): 38.3%
Percentage of aphids Dead ([5]; diluted 1:200 in water, after 24 hours, n = 250, Table 16, control 24.8): 44.3%
Percentage of aphids Feeding ([5]; diluted 1:200 in water, after 24 hours, n = 250, Table 16, control 51.7): 17.7%
D (dead), of 5 (American cockroaches; [6]): 2/5
IM (immobilized), of 5 (American cockroaches; [6]): 1/5
KD (knockdown), of 5 (American cockroaches; [6]): 1/5
D (dead), of 5 (American cockroaches; [7]): 3/5
IM (immobilized), of 5 (American cockroaches; [7]): 1/5
IM (immobilized), of 5 (American cockroaches; 1% eugenol in 99% Isopar M, 15 min): 2/5 IM
IM (immobilized), of 5 (American cockroaches; 1% eugenol in 99% Isopar M, 30 min): 2/5 IM
D (dead), of 5 (American cockroaches; [8]): 4/5
IM (immobilized), of 5 (American cockroaches; [8]): 1/5
IM (immobilized), of 5 (American cockroaches; 1% eugenol in 99% Isopar M, 1 hr.): 1/5 IM
D (dead), of 5 (American cockroaches; 1% eugenol in 99% Isopar M, 1.5 hr.): 5/5 D
L (live, no effect), of 5 (American cockroaches; 1% eugenol in acetone, 2 min): 5/5 L
L (live, no effect), of 5 (American cockroaches; 1% eugenol in acetone, 30 min): 5/5 L
IM (immobilized), of 5 (American cockroaches; 1% eugenol in acetone, 45 min): 3/5 IM
IM (immobilized), of 5 (American cockroaches; 1% eugenol in acetone, 1 hr.): 3/5
KD (knockdown), of 5 (American cockroaches; 1% eugenol in acetone, 1 hr.): 1/5
IM (immobilized), of 5 (American cockroaches; 1% eugenol in acetone, 1.5 hr.): 3/5
KD (knockdown), of 5 (American cockroaches; 1% eugenol in acetone, 1.5 hr.): 1/5
IM (immobilized), of 5 (American cockroaches; 1% eugenol in acetone, 2 hr.): 3/5
KD (knockdown), of 5 (American cockroaches; 1% eugenol in acetone, 2 hr.): 1/5
IM (immobilized), of 5 (American cockroaches; 1% eugenol in acetone, 4 hr.): 3/5
KD (knockdown), of 5 (American cockroaches; 1% eugenol in acetone, 4 hr.): 1/5
IM (immobilized), of 5 (American cockroaches; 1% eugenol in acetone, 24 hr., (KD/IM recover)): 2/5 IM (KD/IM recover)
D (dead), of 5 (American cockroaches; [9]): 2/5
IM (immobilized), of 5 (American cockroaches; [9]): 1/5
D (dead), of 5 (American cockroaches; [10]): 4/5
IM (immobilized), of 5 (American cockroaches; [10]): 1/5
D (dead), of 5 (American cockroaches; 5% eugenol in 95% Isopar M, 10 min): 5/5 D
IM (immobilized), of 5 (American cockroaches; 5% eugenol in acetone, 2 min): 1/5 IM
IM (immobilized), of 5 (American cockroaches; 5% eugenol in acetone, 5 min): 1/5 IM
IM (immobilized), of 5 (American cockroaches; 5% eugenol in acetone, 15 min): 3/5 IM
IM (immobilized), of 5 (American cockroaches; 5% eugenol in acetone, 30 min): 3/5
KD (knockdown), of 5 (American cockroaches; 5% eugenol in acetone, 30 min): 1/5
IM (immobilized), of 5 (American cockroaches; 5% eugenol in acetone, 45 min): 3/5
KD (knockdown), of 5 (American cockroaches; 5% eugenol in acetone, 45 min): 1/5
IM (immobilized), of 5 (American cockroaches; 5% eugenol in acetone, 1 hr.): 4/5
KD (knockdown), of 5 (American cockroaches; 5% eugenol in acetone, 1 hr.): 1/5
IM (immobilized), of 5 (American cockroaches; 5% eugenol in acetone, 1.5 hr.): 4/5
KD (knockdown), of 5 (American cockroaches; 5% eugenol in acetone, 1.5 hr.): 1/5
IM (immobilized), of 5 (American cockroaches; 5% eugenol in acetone, 2 hr.): 4/5
KD (knockdown), of 5 (American cockroaches; 5% eugenol in acetone, 2 hr.): 1/5
D (dead), of 5 (American cockroaches; 5% eugenol in acetone, 4 hr.): 4/5
KD (knockdown), of 5 (American cockroaches; 5% eugenol in acetone, 4 hr.): 1/5
D (dead), of 5 (American cockroaches; 5% eugenol in acetone, 24 hr.): 5/5 D
effectiveness as a pesticide for American cockroaches, in words (American cockroaches; 5% eugenol, in both modes of use (acetone, Isopar M)): highly effective
